Paper PMC12231361, “KETAMIR-2, a new molecular entity and novel ketamine analog” (Frontiers in Pharmacology, 2025)

Target: T1, PCP site on NMDA receptor
T1 construct: gene Grin1; PCP (channel pore) site of the NMDA receptor complex
Experiment: PCP-site binding assay
Details: read-out: PCP site / IC50/Ki
Description: PCP-site binding assay on PCP site on NMDA receptor

CNC1(c2ccccc2Cl)CCCC1=O (centres unmarked) [Ketamir-2, 1-(2-chlorophenyl)-N-methyl-2-oxocyclopentan-1-aminium]
IC50: ~100 µM

Nor-Ketamir
IC50: ~470 µM
